The term AC50 denotes the concentration giving half of the maximal activity seen. For orientation: IC50 means the midpoint of a concentration-inhibition curve. In general, EC50 refers to the concentration needed to bring the measured effect to its halfway point.

The text below walks through data of ChEMBL document CHEMBL1201862, “PubChem BioAssay data set” (2004).

Test [1] can be described thus: LGR2 antagonists, dose response, cell-based, HEK293, CRE-luciferase reporter, cherry pick, set 2 (AID 743343).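 Note: transfected cells were stimulated with diluted bursicon conditioned medium after compound addition.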 It is filed as functional.
Another test has as its system A-375. As to the kind of experiment: A375 melanoma cell viability reduction, dose response, counter-screen for MITF modulator project, cherry-pick samples, set 2 (AID 540335). It counts as functional, cell-based. The note with it: Homo sapiens.
The nature of test [2]: THP-1 cell cytotoxicity, dose response, cytotoxicity control for non-replicating M. tuberculosis project (AID 489025). It counts as functional.
Test [3] can be described thus: ADAM10 inhibitors, peptide cleavage, dose response, biochemical, QFRET (AID 743254).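 Note: ADAM10 enzyme with the DM2 quenched FRET peptide as substrate; EDANS fluorescence gain as the protease cuts the substrate; inhibitor potency against ADAM10 proteolytic activity.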
A short description of test [4]: HEK293 cell cytotoxicity, dose response, cytotoxicity control, plate reader, cherry-picked samples (AID 743446). It is filed as functional, cell-based.
Test [5] is described as follows: MC4R antagonists, dose response, counter-screen for LGR2 antagonist project, cell-based, plate reader, cherry pick (AID 743444).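 Note: transfected HEK 293 cells stimulated with alpha-MSH peptide; potency of inhibitors of the alpha-MSH evoked signal.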 It is filed as functional. Background: A counterscreen serves to expose hits that act by an unwanted route or on another target.
The next test deals with Paired box protein Pax-8 (Homo sapiens, UniProt Q06710). As to the kind of experiment: inhibitors of PAX8-driven TPO luciferase reporter, dose response, RMG-I cells, cherry-pick (AID 687027).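 Note: luciferase reporter driven by Pax8 target thyroperoxidase promoter measured by SteadyGlo luminescence.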 It is filed as functional, cell-based.
The target in test [6] is T1, Microphthalmia-associated transcription factor (Homo sapiens, UniProt O75030).
T1 sequence (O75030 whole entry): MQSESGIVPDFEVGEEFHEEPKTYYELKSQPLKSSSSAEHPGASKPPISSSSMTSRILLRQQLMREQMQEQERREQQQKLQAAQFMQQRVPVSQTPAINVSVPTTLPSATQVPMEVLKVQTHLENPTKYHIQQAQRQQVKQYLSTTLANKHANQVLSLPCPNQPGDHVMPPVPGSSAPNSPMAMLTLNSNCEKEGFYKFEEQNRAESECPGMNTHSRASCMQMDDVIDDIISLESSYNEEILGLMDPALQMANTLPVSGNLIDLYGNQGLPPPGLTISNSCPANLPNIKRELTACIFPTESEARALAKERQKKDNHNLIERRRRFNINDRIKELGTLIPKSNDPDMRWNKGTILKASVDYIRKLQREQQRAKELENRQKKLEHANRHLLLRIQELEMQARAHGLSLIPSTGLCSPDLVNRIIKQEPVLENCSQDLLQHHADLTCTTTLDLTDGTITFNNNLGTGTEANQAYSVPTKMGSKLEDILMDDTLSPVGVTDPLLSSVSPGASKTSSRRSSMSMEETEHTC
Briefly: TRPM1 promoter luciferase signal decrease, dose response, MITF inhibitor project, cell-based, SK-MEL-5, cherry-picked, set 3 (AID 493073).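 Note: SK-MEL-5 melanoma cells with luciferase driven by the MITF target TRPM1 promoter.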 It is filed as functional.

A short description of test [7]: Luminescence Cell-Based Dose Retest to Confirm Inhibitors of Cancer Stem Cells. [Related pubchem assays (depositor defined):AID2717, AID2721]. It is filed as functional. The conditions noted are these: Homo sapiens.
For test [8], the target named is Neurotensin receptor type 1 (Homo sapiens, UniProt P30989). It counts as functional.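 Note: Image-based confirmatory dose-response assay measuring agonist activity at NTR1; NTR1-expressing U2OS osteosarcoma cells imaged for beta-arrestin GFP spot formation; agonist potency where compounds increase beta-arrestin recruitment.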
The target in test [9] is T2, Calpain-2 catalytic subunit (Sus scrofa, UniProt P43367).
T2 sequence (P43367 whole entry): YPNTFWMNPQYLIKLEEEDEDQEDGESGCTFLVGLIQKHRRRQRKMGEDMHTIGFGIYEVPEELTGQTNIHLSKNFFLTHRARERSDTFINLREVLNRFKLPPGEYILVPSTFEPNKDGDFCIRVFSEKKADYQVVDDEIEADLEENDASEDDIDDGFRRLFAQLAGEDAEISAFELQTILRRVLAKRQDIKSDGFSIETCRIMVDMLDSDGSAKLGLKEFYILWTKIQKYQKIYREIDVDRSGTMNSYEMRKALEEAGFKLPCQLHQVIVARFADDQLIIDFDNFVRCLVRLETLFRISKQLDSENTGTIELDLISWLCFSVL
Briefly: pig calpain II inhibitor potency, dose response, biochemical, fluorogenic peptide substrate (AID 1420). It is filed as functional.

Test [10] is described as follows: HepG2 cell cytotoxicity, dose response, cytotoxicity control, plate reader, cherry-pick, antagonist series (AID 743416). It counts as functional, cell-based.
Test [11] in a line: Vero E6 cell cytotoxicity, dose response, cytotoxicity control for non-replicating M. tuberculosis project, secondary assay (AID 492998). It is filed as functional, VeroE6. The conditions noted are these: Vero C1008.
The target in test [12] is Disintegrin and metalloproteinase domain-containing protein 17 (Homo sapiens, UniProt P78536). Briefly: ADAM17 protease inhibitors, dose response, counter-screen for ADAM10 exosite inhibitor project, biochemical, quenched FRET substrate (AID 743253).
Test [13] in a line: non-specific cell cytotoxicity, dose response, cytotoxicity control for PAX8 inhibitor project, plate reader, dry powder samples (AID 743021). It counts as functional, cell-based.
The nature of a further test: cells. It counts as functional.
Test [14] is described as follows: HepG2 cell cytotoxicity, dose response, cytotoxicity control for non-replicating M. tuberculosis project (AID 489018). It is filed as functional. The note with it: Mycobacterium tuberculosis.
A short description of test [15]: A549 cell cytotoxicity, dose response, cytotoxicity control, plate reader, cherry-pick, antagonist series (AID 743412). It counts as functional, cell-based.
Test [16] in a line: microbe, parasite or virus in culture. It is filed as functional. The conditions noted are these: Mycobacterium tuberculosis.
Test [17] deals with T3, Short transient receptor potential channel 4 (Mus musculus, UniProt Q9QUQ5).
T3 sequence (Q9QUQ5 whole entry): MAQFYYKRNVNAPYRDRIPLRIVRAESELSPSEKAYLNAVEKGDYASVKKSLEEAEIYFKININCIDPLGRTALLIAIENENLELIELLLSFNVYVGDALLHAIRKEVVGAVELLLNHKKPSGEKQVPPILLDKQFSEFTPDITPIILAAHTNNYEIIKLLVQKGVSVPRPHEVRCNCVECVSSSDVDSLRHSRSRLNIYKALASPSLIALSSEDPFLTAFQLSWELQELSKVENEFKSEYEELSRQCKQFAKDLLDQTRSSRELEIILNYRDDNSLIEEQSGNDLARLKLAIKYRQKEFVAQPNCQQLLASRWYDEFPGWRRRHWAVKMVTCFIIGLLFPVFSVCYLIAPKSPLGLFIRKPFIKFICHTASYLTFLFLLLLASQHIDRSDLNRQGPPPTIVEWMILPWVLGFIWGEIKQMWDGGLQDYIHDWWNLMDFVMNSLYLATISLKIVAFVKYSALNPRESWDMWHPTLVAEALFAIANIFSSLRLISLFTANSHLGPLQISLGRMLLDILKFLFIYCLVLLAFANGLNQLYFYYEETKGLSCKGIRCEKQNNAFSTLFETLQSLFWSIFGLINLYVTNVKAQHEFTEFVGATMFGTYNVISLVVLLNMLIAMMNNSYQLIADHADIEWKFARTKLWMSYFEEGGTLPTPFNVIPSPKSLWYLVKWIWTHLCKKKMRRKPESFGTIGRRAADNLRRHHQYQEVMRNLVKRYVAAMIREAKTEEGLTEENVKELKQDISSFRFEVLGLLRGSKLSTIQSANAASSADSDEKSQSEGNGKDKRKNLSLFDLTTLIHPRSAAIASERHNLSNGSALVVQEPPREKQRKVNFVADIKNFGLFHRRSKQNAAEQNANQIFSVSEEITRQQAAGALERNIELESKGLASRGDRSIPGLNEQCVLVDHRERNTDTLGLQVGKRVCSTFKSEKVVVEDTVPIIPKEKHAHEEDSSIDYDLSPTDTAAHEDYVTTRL
As to the kind of experiment: mouse TRPC4 channel inhibitors, dose response, cell-based, HEK293 TRPC4/mu-opioid, Fluo-4 calcium (AID 434942).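 Note: potency of inhibitors blocking the TRPC4 calcium response.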 It is filed as functional.

For test [18], the target named is T4, Voltage-dependent T-type calcium channel subunit alpha-1H (Homo sapiens, UniProt O95180). As to the kind of experiment: Inhibitors of T-Type Calcium Channels. [Related pubchem assays (depositor defined):AID449739, AID463087, AID489005, AID493041, AID504579, AID504584, AID504619, AID504628]. It counts as functional.
A further test concerns the target T5, Protein skinhead-1 (Caenorhabditis elegans, UniProt P34707).
T5 sequence (P34707 whole entry): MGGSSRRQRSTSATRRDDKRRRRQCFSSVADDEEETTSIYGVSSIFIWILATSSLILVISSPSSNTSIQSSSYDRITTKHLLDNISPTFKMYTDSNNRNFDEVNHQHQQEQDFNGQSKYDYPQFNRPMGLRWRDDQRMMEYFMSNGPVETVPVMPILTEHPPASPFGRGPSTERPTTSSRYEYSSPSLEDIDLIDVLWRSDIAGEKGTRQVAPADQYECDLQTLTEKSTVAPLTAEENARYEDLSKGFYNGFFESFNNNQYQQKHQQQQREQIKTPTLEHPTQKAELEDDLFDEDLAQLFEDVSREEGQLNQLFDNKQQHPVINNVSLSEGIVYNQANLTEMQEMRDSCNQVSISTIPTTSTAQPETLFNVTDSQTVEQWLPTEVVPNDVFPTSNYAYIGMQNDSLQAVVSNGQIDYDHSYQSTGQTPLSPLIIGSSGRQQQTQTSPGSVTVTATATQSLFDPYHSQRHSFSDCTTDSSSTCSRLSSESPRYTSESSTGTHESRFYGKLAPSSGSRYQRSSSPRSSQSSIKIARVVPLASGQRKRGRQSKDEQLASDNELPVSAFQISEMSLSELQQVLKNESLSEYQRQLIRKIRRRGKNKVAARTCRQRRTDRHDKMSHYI
It counts as functional.

Another test concerns the target Prothrombin (Homo sapiens, UniProt P00734). Briefly: Thrombin 1536 HTS Dose Response Confirmation. [Related pubchem assays: 1046 (Thrombin 1536 HTS; hits were confirmed in this assay)]. It is filed as functional.
The target of the next test is T6, Coagulation factor XII (Homo sapiens, UniProt P00748).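 Note: activated factor XIIa alpha cleaving a fluorogenic AMC peptide substrate; inhibitor potency from loss of enzyme activity.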
T6 sequence (P00748 whole entry): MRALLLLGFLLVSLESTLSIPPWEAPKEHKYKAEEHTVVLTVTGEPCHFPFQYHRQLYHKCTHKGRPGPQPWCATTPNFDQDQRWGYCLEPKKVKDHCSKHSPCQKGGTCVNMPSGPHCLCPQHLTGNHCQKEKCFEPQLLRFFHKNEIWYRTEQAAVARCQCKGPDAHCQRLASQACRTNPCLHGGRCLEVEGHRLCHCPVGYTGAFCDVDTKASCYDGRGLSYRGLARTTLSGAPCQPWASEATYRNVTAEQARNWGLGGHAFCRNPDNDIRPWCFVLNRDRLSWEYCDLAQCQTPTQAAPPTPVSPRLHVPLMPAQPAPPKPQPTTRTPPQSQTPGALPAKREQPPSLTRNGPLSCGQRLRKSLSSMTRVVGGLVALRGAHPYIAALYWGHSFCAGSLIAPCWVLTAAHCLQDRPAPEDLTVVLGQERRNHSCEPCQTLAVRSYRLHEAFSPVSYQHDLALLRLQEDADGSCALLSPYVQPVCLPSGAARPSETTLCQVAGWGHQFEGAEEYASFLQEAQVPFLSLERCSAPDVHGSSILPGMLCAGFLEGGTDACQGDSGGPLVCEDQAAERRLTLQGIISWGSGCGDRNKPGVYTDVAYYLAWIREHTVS
It is filed as functional.

Test [19] concerns the target T4, Voltage-dependent T-type calcium channel subunit alpha-1H. It counts as functional.
Another test deals with Caspase-7 (Homo sapiens, UniProt P55210). Briefly: procaspase-7 activators, dose response, dual procaspase-3/-7 activator project, biochemical, absorbance, human (AID 504330).
A further test concerns the target T7, Caspase-3 (Homo sapiens, UniProt P42574).
T7 sequence (P42574 whole entry): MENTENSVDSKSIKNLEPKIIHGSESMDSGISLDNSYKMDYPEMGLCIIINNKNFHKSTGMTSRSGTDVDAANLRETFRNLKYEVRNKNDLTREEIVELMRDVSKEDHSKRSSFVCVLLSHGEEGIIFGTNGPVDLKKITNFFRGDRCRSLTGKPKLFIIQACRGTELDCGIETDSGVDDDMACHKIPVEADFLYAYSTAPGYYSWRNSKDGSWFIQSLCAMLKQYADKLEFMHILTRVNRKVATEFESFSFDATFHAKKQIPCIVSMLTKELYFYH
As to the kind of experiment: procaspase-3 activation potency of dual hits, dose response, counter-screen for dual procaspase-3/7 activator project, biochemical, absorbance, PC-3 D3A mutant (AID 504328).

Structures are written as SMILES. The source made the active and inactive calls.

T4 sequence (O95180 whole entry): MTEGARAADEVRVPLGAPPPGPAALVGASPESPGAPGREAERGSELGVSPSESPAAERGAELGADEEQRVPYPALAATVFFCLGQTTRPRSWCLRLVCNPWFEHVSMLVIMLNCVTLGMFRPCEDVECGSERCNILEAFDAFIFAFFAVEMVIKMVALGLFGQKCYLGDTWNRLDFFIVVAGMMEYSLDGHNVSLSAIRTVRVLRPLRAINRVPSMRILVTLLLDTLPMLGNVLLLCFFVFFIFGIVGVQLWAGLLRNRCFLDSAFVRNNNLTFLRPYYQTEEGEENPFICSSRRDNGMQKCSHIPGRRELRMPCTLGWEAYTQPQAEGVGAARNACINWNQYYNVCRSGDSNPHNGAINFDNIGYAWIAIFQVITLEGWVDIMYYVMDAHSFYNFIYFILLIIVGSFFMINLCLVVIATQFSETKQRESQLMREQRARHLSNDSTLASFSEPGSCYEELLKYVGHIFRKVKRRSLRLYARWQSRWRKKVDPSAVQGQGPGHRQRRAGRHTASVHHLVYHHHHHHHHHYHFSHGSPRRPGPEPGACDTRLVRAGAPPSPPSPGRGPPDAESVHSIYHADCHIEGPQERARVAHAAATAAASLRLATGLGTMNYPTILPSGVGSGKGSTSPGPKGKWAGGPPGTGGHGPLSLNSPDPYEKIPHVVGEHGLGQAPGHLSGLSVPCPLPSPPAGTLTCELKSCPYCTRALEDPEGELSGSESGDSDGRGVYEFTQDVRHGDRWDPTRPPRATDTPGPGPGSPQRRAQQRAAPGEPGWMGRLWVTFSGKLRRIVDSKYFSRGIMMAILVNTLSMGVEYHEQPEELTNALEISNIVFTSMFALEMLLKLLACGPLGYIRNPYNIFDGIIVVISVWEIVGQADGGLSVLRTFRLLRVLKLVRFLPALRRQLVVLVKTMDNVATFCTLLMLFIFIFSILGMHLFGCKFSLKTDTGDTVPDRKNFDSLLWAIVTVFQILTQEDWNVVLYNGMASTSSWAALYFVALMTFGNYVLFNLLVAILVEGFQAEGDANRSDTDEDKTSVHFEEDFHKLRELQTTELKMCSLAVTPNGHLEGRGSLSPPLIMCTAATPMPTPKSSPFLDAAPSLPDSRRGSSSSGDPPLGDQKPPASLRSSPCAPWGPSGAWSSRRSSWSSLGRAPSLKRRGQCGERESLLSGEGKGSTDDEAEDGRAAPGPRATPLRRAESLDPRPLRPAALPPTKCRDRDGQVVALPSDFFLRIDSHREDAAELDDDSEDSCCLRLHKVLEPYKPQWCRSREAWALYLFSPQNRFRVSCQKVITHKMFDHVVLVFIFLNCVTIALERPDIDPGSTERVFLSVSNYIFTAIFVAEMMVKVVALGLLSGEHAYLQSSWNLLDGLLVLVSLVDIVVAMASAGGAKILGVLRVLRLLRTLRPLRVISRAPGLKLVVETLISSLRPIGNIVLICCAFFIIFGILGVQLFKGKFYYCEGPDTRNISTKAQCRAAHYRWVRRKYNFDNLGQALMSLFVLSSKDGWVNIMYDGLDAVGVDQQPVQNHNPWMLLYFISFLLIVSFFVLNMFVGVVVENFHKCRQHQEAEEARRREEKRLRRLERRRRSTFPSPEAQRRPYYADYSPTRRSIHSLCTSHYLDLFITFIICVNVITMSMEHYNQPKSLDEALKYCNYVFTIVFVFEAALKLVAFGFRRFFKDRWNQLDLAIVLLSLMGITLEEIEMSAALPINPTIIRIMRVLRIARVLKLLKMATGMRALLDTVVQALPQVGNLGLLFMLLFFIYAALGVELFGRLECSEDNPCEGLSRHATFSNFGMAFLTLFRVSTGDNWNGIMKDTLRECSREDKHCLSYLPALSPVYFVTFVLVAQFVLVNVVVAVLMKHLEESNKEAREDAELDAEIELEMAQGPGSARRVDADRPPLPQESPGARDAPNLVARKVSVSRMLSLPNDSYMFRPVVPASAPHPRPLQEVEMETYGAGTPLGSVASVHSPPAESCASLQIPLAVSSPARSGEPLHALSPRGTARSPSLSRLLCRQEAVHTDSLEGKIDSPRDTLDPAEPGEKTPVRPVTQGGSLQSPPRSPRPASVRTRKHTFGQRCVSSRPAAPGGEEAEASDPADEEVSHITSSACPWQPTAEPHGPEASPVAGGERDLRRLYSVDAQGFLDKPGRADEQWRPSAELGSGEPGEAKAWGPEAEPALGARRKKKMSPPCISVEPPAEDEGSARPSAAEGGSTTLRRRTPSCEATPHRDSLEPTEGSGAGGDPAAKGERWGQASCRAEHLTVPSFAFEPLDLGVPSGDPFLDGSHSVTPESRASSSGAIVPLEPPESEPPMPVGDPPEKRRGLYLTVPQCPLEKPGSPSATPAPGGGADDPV
Sequence of Paired box protein Pax-8 (Q06710 whole entry): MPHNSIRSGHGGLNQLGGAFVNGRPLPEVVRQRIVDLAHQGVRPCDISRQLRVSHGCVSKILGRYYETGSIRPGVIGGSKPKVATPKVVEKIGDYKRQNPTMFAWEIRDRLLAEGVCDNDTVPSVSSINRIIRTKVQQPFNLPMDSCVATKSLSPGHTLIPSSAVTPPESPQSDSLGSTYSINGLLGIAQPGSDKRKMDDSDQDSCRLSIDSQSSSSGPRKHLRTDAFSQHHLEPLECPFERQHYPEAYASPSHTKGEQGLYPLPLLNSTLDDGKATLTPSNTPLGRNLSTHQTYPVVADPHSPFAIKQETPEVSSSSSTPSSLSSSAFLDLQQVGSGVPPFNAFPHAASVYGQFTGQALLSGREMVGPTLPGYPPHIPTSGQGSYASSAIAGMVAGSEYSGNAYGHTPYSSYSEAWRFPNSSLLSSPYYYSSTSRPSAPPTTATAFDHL
Sequence of Disintegrin and metalloproteinase domain-containing protein 17 (P78536 whole entry, the tested form may be a part): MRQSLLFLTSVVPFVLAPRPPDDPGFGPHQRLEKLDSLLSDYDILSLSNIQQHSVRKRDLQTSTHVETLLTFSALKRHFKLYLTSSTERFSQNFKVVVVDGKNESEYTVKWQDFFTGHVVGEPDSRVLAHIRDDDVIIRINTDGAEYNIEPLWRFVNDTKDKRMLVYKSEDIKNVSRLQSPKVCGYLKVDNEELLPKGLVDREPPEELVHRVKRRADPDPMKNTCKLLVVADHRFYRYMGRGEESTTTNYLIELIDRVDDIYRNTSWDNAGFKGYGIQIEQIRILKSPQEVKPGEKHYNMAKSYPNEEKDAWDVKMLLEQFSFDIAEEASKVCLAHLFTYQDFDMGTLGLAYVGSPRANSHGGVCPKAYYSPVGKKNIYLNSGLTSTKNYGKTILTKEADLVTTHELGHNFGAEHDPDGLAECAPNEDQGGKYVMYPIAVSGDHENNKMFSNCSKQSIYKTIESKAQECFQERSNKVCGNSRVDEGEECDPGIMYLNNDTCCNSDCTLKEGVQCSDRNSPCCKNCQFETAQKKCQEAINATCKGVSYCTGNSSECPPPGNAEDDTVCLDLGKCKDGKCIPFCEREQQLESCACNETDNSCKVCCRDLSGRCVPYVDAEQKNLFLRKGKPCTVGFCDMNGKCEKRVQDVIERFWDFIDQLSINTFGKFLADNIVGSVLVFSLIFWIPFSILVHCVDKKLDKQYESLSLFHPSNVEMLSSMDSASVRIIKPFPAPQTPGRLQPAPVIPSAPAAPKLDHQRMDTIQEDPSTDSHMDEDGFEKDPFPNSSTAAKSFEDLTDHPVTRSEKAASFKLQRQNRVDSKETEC
Sequence of Neurotensin receptor type 1 (P30989 whole entry): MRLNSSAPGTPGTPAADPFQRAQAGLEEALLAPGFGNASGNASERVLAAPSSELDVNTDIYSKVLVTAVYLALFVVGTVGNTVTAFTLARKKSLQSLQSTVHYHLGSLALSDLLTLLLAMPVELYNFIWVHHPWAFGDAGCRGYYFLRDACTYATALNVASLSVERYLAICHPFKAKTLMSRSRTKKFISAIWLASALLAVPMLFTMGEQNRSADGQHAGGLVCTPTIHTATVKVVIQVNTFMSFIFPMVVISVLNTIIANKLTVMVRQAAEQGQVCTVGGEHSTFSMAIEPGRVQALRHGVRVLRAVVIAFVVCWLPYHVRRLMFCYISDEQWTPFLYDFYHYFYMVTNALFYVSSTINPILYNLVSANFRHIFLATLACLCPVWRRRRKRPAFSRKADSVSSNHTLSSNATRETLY

In the case of `OC(CNCC(c1ccc(Cl)cc1Cl)c1c[nH]c2ccccc12)c1ccccc1` (configuration not stated), the concentration at half-maximal activity (AC50) in test [1] is 19.2 µM (active); in the test on A-375, 14.8 µM (active); in test [4], 14.2 µM (active); in test [5] it was 21.1 µM (active); on Paired box protein Pax-8, 11.2 µM (active); in [6], 14.7 µM (active). Moreover, the concentration at half-maximal activity (AC50) was 2.12 µM (active) in [7], 8.61 µM (active) in test [10], 38.2 µM (active) in test [13] and 8.71 µM (active) in test [15]. The CC50 in [2] was 6.38 µM (active); in [11], 6.27 µM (active); in [14], 7.75 µM (active); in [16], 6.04 µM (active). The IC50 in test [3] was 13.4 µM (inactive); in test [9], 11.4 µM (not active); in test [12], > 69.5 µM (inactive); in the test “cells”, 12.3 µM (active). Moreover, in test [8], the EC50 is 15.2 µM (active).
Consider `COc1ccc(C(=O)Nc2nc(-c3cccs3)cs2)cc1`, for which the 50% effective concentration (EC50) was 5.31 µM (active) in test [17], 1.1 µM (active) in test [18] and 1.08 µM (active) in [19]. In addition, the figures for the IC50 on Protein skinhead-1, on Prothrombin and on Coagulation factor XII were 57.1 µM (inactive), 1.14 µM (active) and > 50 µM (inactive), respectively.
`CCOC(=O)/C(C#N)=C/Nc1cc(OC)ccc1OC`: the EC50 at Caspase-7 and on Caspase-3 was > 85.3 µM (inactive) in each case.
